Test results reported in patent US11206830B2, “Herbicidal composition comprising glufosinate or a salt thereof and pyroxasulfone” (BASF SE, priority 2008, dated 2021).
Like-named read-outs stand apart in the source and are kept apart here.

How the values were obtained:
Assay type in all cases: in vivo
[1] = system: Chenopodium album (CHEAL); test: greenhouse post-emergence herbicidal activity on CHEAL
Text: (§1) For the post-emergence treatment, the test plants were first grown to a height of 3 to 20 cm, depending on the plant habit, and only then treated. Here, the herbicidal compositions were suspended or emulsified in water as distribution medium and sprayed using finely distributing nozzles.
(§2) The respective herbicides B and/or safener were formulated as 10% by weight strength suspension concentrate and introduced to the spray liquor with the amount of solvent system used for applying the active compound. Herbicides A, C and/or safener were used as commercially available formulations and introduced to the spray liquor with the amount of solvent system used for applying the active compound. In the examples, the solvent used was water.
(§3) The test period extended over 21 days. During this time, the plants were tended, and their response to the treatments with active compound was evaluated.
(§4) The evaluation for the damage caused by the chemical compositions was carried out using a scale from 0 to 100%, compared to the untreated control plants. Here, 0 means no damage and 100 means complete destruction of the plants.
(§5) The value E, which is to be expected if the activity of the individual compounds is just additive, was calculated using the method of S. R. Colby (1967) “Calculating synergistic and antagonistic responses of herbicide combinations”, Weeds 15, p. 22 ff. For two component mixtures the value E was calculated by the following formula E=X+Y−(X·Y/100)
(§6) For three component mixtures the value E was calculated by the following formula E=X+Y+Z−(XY+XZ+YZ)/100+(X·YZ/10000) where X=effect in percent using herbicide A at an application rate a; • Y=effect in percent using herbicide B at an application rate b; • Z=effect in percent using herbicide C at an application rate c; • E=expected effect (in %) of A+B at application rates a+b. or • E=expected effect (in %) of A+B+C at application rates a+b+c.
(§7) If the value observed in this manner is higher than the value E calculated according to Colby, a synergistic effect is present.
(§8) Tables 1 to 12 relate to the herbicidal activity of the individual actives and of their combinations in post-emergence application assessed 20 DAT.

[2] = system: Abutilon theophrasti (ABUTH); test: greenhouse post-emergence herbicidal activity on ABUTH; settings: for inhibition at 5 g/ha: 5 g ai/ha
Text: as §1, §2, §3, §4, §5, §6, §7, §8

[3] = system: Polygonum convolvulus (POLCO); test: greenhouse post-emergence herbicidal activity on POLCO
Text: as §1, §2, §3, §4, §5, §6, §7, §8

[4] = system: Digitaria sanguinalis (DIGSA); test: greenhouse post-emergence herbicidal activity on DIGSA
Text: as §1, §2, §3, §4, §5, §6, §7, §8

[5] = system: Alopecurus myosuroides (ALOMY); test: greenhouse post-emergence herbicidal activity on ALOMY
Text: as §1, §2, §3, §4, §5, §6, §7, §8

[6] = system: Avena fatua (AVEFA); test: greenhouse post-emergence herbicidal activity on AVEFA; settings: 480 h, read-out: % activity 20 DAT
Text: as §1, §2, §3, §4, §5, §6, §7, §8

[7] = system: Galium aparine (GALAP); test: greenhouse post-emergence herbicidal activity on GALAP; settings: for inhibition at 5 g/ha: 5 g ai/ha
Text: as §1, §2, §3, §4, §5, §6, §7, §8

[8] = system: Lolium multiflorum (LOLMU); test: greenhouse post-emergence herbicidal activity on LOLMU; settings: for inhibition at 5 g/ha: 5 g ai/ha
Text: as §1, §2, §3, §4, §5, §6, §7, §8

[9] = system: Matricaria inermis (MATIN); test: greenhouse post-emergence herbicidal activity on MATIN
Text: as §1, §2, §3, §4, §5, §6, §7, §8

[10] = system: Setaria viridis (SETVI); test: greenhouse post-emergence herbicidal activity on SETVI; settings: 480 h, solo application, 100 g ai/ha, read-out: % activity 20 DAT
Text: as §1, §2, §3
(§9) The evaluation for the damage caused by the chemical compositions was carried out using a scale from 0 to 100%, compared to the untreated control plants. […]
(§10) The value E, which is to be expected if the activity of the individual compounds is just additive, was calculated using the method of S. R. Colby (1967) “Calculating synergistic and antagonistic responses of herbicide combinations”, Weeds 15, p. […] For two component mixtures the value E was calculated by the following formula E=X+Y−(X·Y/100)
as §6, §7, §8

[11] = system: Amaranthus retroflexus (AMARE); test: greenhouse post-emergence herbicidal activity on AMARE; settings: 480 h, solo application, 100 g ai/ha, read-out: % activity 20 DAT
Text: as §1, §2, §3, §9, §10, §6, §7, §8

[12] = Fallopia convolvulus, 480 h, read-out: % activity 20 DAT
[13] = Digitaria sanguinalis, 480 h, read-out: % activity 20 DAT
[14] = Alopecurus myosuroides, 480 h, read-out: % activity 20 DAT, post-emergence, solo application, 6.25 g ai/ha
[15] = Chenopodium album, 480 h, solo application, 6.25 g ai/ha, read-out: % activity 20 DAT
[16] = Digitaria sanguinalis, 480 h, solo application, 6.25 g ai/ha, read-out: % activity 20 DAT
[17] = Alopecurus myosuroides, 480 h, solo application, 6.25 g ai/ha, read-out: % activity 20 DAT
[18] = Abutilon theophrasti, 480 h, solo application, read-out: % activity 20 DAT
[19] = Galium aparine, 480 h, solo application, read-out: % activity 20 DAT
[20] = Lolium multiflorum, 480 h, solo application, read-out: % activity 20 DAT

Compound: CCc1nc2c(Cl)cc(Cl)c(-c3nn(C)c(OC(F)F)c3Br)c2o1 [Compound B]
- inhibition at 6.25 g/ha ([1]; Chenopodium album, 480 h, read-out: % activity 20 DAT, post-emergence, solo application, 6.25 g ai/ha): 85%
- inhibition at 6.25 g/ha ([2]; Abutilon theophrasti, 480 h, read-out: % activity 20 DAT, post-emergence, solo application, 6.25 g ai/ha): 98%
- inhibition at 6.25 g/ha [3, 12]: 90%
- inhibition at 6.25 g/ha [4, 13]: 50%
- inhibition at 6.25 g/ha [5, 14]: 20%
- inhibition at 12.5 g/ha ([5]; Alopecurus myosuroides, 480 h, read-out: % activity 20 DAT, post-emergence, solo application, 12.5 g ai/ha): 35%

Compound: C#CCN1C(=O)COc2cc(F)c(-n3c(=O)n(C)c(=S)n(C)c3=O)cc21 [Compound D]
- inhibition at 6.25 g/ha [6]: 75%
- inhibition at 3.13 g/ha ([1]; Chenopodium album, 480 h, read-out: % activity 20 DAT, post-emergence, solo application, 3.13 g ai/ha): 45%
- inhibition at 3.13 g/ha ([7]; Galium aparine, 480 h, read-out: % activity 20 DAT, post-emergence, solo application, 3.13 g ai/ha): 30%
- inhibition at 6.25 g/ha ([7]; Galium aparine, 480 h, read-out: % activity 20 DAT, post-emergence, solo application, 6.25 g ai/ha): 30%
- inhibition at 3.13 g/ha ([8]; Lolium multiflorum, 480 h, read-out: % activity 20 DAT, post-emergence, solo application, 3.13 g ai/ha): 40%
- inhibition at 3.13 g/ha [3, 12]: 95%
- inhibition at 3.13 g/ha [4, 13]: 35%
- inhibition at 3.13 g/ha ([5]; Alopecurus myosuroides, 480 h, read-out: % activity 20 DAT, post-emergence, solo application, 3.13 g ai/ha): 30%
- inhibition at 6.25 g/ha [5, 14]: 40%

Compound: CCNc1nc(Cl)nc(NC(C)C)n1 [atrazin]
- inhibition at 62.5 g/ha ([1]; Chenopodium album, 480 h, solo application, 62.5 g ai/ha, read-out: % activity 20 DAT): 20%
- inhibition at 125 g/ha ([1]; Chenopodium album, 480 h, solo application, 125 g ai/ha, read-out: % activity 20 DAT): 60%
- inhibition at 62.5 g/ha ([4]; Digitaria sanguinalis, 480 h, solo application, 62.5 g ai/ha, read-out: % activity 20 DAT): 0%
- inhibition at 250 g/ha ([5]; Alopecurus myosuroides, 480 h, solo application, 250 g ai/ha, read-out: % activity 20 DAT): 50%

Compound: COc1c(Cl)ccc(Cl)c1C(=O)O [dicamba]
- inhibition at 50 g/ha ([1]; Chenopodium album, 480 h, solo application, 50 g ai/ha, read-out: % activity 20 DAT): 50%
- inhibition at 25 g/ha ([9]; Matricaria, 480 h, read-out: % activity 20 DAT, post-emergence, solo application, 25 g ai/ha): 45%
- inhibition at 50 g/ha ([2]; Abutilon theophrasti, 480 h, solo application, 50 g ai/ha, read-out: % activity 20 DAT): 50%
- inhibition at 50 g/ha ([8]; Lolium multiflorum, 480 h, solo application, 50 g ai/ha, read-out: % activity 20 DAT): 0%
- inhibition at 25 g/ha ([5]; Alopecurus myosuroides, 480 h, solo application, 25 g ai/ha, read-out: % activity 20 DAT): 10%

Compound: C#CCN1C(=O)COc2cc(F)c(N3C(=O)C4=C(CCCC4)C3=O)cc21 [flumioxazin]
- inhibition at 6.25 g/ha ([6]; solo application, 6.25 g ai/ha): 35%
- inhibition at 6.25 g/ha [1, 15]: 0%
- inhibition at 12.5 g/ha ([1]; Chenopodium album, 480 h, solo application, 12.5 g ai/ha, read-out: % activity 20 DAT): 30%
- inhibition at 6.25 g/ha ([9]; Matricaria, 480 h, solo application, 6.25 g ai/ha, read-out: % activity 20 DAT): 65%
- inhibition at 6.25 g/ha ([7]; Galium aparine, 480 h, solo application, 6.25 g ai/ha, read-out: % activity 20 DAT): 30%
- inhibition at 12.5 g/ha ([7]; Galium aparine, 480 h, solo application, 12.5 g ai/ha, read-out: % activity 20 DAT): 30%
- inhibition at 6.25 g/ha [4, 16]: 15%
- inhibition at 6.25 g/ha [5, 17]: 20%
- inhibition at 12.5 g/ha ([5]; Alopecurus myosuroides, 480 h, solo application, 12.5 g ai/ha, read-out: % activity 20 DAT): 20%

Compound: COCc1cnc(C2=NC(C)(C(C)C)C(=O)N2)c(C(=O)O)c1 (centres unmarked) [imazamox]
- inhibition at 5 g/ha ([1]; Chenopodium album, 480 h, solo application, 5 g ai/ha, read-out: % activity 20 DAT): 15%
- inhibition at 10 g/ha ([1]; Chenopodium album, 480 h, solo application, 10 g ai/ha, read-out: % activity 20 DAT): 30%
- inhibition at 5 g/ha ([9]; Matricaria, 480 h, solo application, 5 g ai/ha, read-out: % activity 20 DAT): 25%
- inhibition at 5 g/ha [2, 18]: 50%
- inhibition at 5 g/ha [7, 19]: 20%
- inhibition at 10 g/ha ([7]; Galium aparine, 480 h, solo application, 10 g ai/ha, read-out: % activity 20 DAT): 30%
- inhibition at 5 g/ha [8, 20]: 40%
- inhibition at 10 g/ha ([8]; Lolium multiflorum, 480 h, solo application, 10 g ai/ha, read-out: % activity 20 DAT): 60%
- inhibition at 10 g/ha ([4]; Digitaria sanguinalis, 480 h, solo application, 10 g ai/ha, read-out: % activity 20 DAT): 20%
- inhibition at 10 g/ha ([5]; Alopecurus myosuroides, 480 h, solo application, 10 g ai/ha, read-out: % activity 20 DAT): 30%

Compound: Cc1cnc(C2=NC(=O)C(C)(C(C)C)N2)c(C(=O)O)c1 (centres unmarked) [imazapic]
- inhibition at 20 g/ha ([1]; Chenopodium album, 480 h, solo application, 20 g ai/ha, read-out: % activity 20 DAT): 40%
- inhibition at 5 g/ha [2, 18]: 60%
- inhibition at 5 g/ha [7, 19]: 55%
- inhibition at 5 g/ha [8, 20]: 60%
- inhibition at 5 g/ha ([4]; Digitaria sanguinalis, 480 h, solo application, 5 g ai/ha, read-out: % activity 20 DAT): 50%
- inhibition at 20 g/ha ([5]; Alopecurus myosuroides, 480 h, solo application, 20 g ai/ha, read-out: % activity 20 DAT): 45%

Compound: CS(=O)(=O)c1cc(C(F)(F)F)ccc1C(=O)c1cnoc1C1CC1 [isoxaflutole]
- inhibition at 6.25 g/ha [1, 15]: 75%
- inhibition at 6.25 g/ha ([2]; Abutilon theophrasti, 480 h, solo application, 6.25 g ai/ha, read-out: % activity 20 DAT): 55%
- inhibition at 25 g/ha ([3]; Fallopia convolvulus, 480 h, solo application, 25 g ai/ha, read-out: % activity 20 DAT): 45%
- inhibition at 6.25 g/ha [4, 16]: 15%
- inhibition at 6.25 g/ha [5, 17]: 0%

Compound: CCC(CC)Nc1c([N+](=O)[O-])cc(C)c(C)c1[N+](=O)[O-] [pendimethalin]
- inhibition at 100 g/ha ([9]; Matricaria, 480 h, solo application, 100 g ai/ha, read-out: % activity 20 DAT): 0%
- inhibition at 800 g/ha ([9]; Matricaria, 480 h, solo application, 800 g ai/ha, read-out: % activity 20 DAT): 0%
- inhibition at 100 g/ha [10]: 30%
- inhibition at 100 g/ha [11]: 75%
- inhibition at 200 g/ha ([8]; Lolium multiflorum, 480 h, solo application, 200 g ai/ha, read-out: % activity 20 DAT): 30%
- inhibition at 400 g/ha ([5]; Alopecurus myosuroides, 480 h, solo application, 400 g ai/ha, read-out: % activity 20 DAT): 40%

Compound: O=C(Nc1ccc(F)cc1)c1cccc(Oc2cccc(C(F)(F)F)c2)n1 [picolinafen]
- % activity 20 DAT ([1]; solo application, 12.5 g ai/ha): 30%
- % activity 20 DAT ([9]; solo application, 50 g ai/ha): 60%
- % activity 20 DAT ([2]; solo application, 6.25 g ai/ha): 30%
- % activity 20 DAT ([2]; solo application, 25 g ai/ha): 60%
- % activity 20 DAT ([7]; solo application, 6.25 g ai/ha): 30%
- % activity 20 DAT ([8]; solo application, 12.5 g ai/ha): 10%
- % activity 20 DAT ([3]; solo application, 50 g ai/ha): 80%
- % activity 20 DAT ([4]; solo application, 6.25 g ai/ha): 30%
- % activity 20 DAT ([4]; solo application, 12.5 g ai/ha): 45%
- % activity 20 DAT ([5]; solo application, 6.25 g ai/ha): 0%
- % activity 20 DAT ([5]; solo application, 25 g ai/ha): 0%
